Laboratory results taken from patent US8192962B2, “Processes for detecting toxic substances” (Daikin Industries, Ltd., priority 2001, dated 2012).

System: Unknown protein yeast genes
Test: DNA chip mRNA expression in yeast, unknown protein yeast genes (Table 1)
Assay type: cell-based, Saccharomyces cerevisiae S288C
How it was run: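 In this screen, yeast in logarithmic growth are challenged for two hours with a toxic substance at a non-lethal inhibitory concentration. Their mRNA, converted to Cy3- or Cy5-labeled cDNA, hybridizes at 65° C. to a chip spanning every yeast gene, and expression is expressed as a ratio to untreated cells.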

Measured: The level of expressed mRNA in the presence of chemical substance/The level of expressed mRNA in the absence of chemical substance

CCCCCCCCCCCCOS(=O)(=O)[O-].[Na+] [(18), sodium lauryl sulfate]
2.0: yeast gene YMR184W, incubated two hours with chemical substance | yeast gene YOL071W, incubated two hours with chemical substance
2.2: yeast gene YOL150C
4.4: yeast gene YDL110C | yeast gene YGR243W
3.7: yeast gene YGL053W, incubated two hours with chemical substance
2.7: yeast gene YDL204W, incubated two hours with chemical substance | yeast gene YDR533C | yeast gene YJR008W, incubated two hours with chemical substance | yeast gene YPL087W, incubated two hours with chemical substance
1.6: yeast gene YAL053W, incubated two hours with chemical substance | yeast gene YER079W, incubated two hours with chemical substance | yeast gene YFL010C, incubated two hours with chemical substance | yeast gene YGR130C, incubated two hours with chemical substance | yeast gene YIL087C, incubated two hours with chemical substance | yeast gene YKL195W, incubated two hours with chemical substance | yeast gene YNL092W, incubated two hours with chemical substance | yeast gene YNL305C, incubated two hours with chemical substance
3.5: yeast gene YGL121C
2.6: yeast gene YGL037C, incubated two hours with chemical substance | yeast gene YHR209W | yeast gene YNL115C, incubated two hours with chemical substance
3.4: yeast gene YHR054C | yeast gene YMR295C, incubated two hours with chemical substance | yeast gene YNL044W, incubated two hours with chemical substance
8.1: yeast gene YMR107W, incubated two hours with chemical substance
7.1: yeast gene YHR138C, incubated two hours with chemical substance
0.9: yeast gene YDR545W, incubated two hours with chemical substance | yeast gene YHR199C, incubated two hours with chemical substance | yeast gene YJR054W, incubated two hours with chemical substance | yeast gene YKL071W | yeast gene YLR194C, incubated two hours with chemical substance | yeast gene YNL281W, incubated two hours with chemical substance | yeast gene YOL036W, incubated two hours with chemical substance | yeast gene YOL131W, incubated two hours with chemical substance | yeast gene YOL162W, incubated two hours with chemical substance | yeast gene YPL222W, incubated two hours with chemical substance
2.5: yeast gene YMR009W, incubated two hours with chemical substance | yeast gene YOL082W, incubated two hours with chemical substance
6.4: yeast gene YMR316W, incubated two hours with chemical substance
1.2: yeast gene YER004W, incubated two hours with chemical substance | yeast gene YER158C, incubated two hours with chemical substance | yeast gene YER163C, incubated two hours with chemical substance | yeast gene YER175C, incubated two hours with chemical substance | yeast gene YGL047W, incubated two hours with chemical substance | yeast gene YGR154C, incubated two hours with chemical substance | yeast gene YLR324W, incubated two hours with chemical substance
1.1: yeast gene YGR101W, incubated two hours with chemical substance | yeast gene YIL041W, incubated two hours with chemical substance | yeast gene YLR054C, incubated two hours with chemical substance | yeast gene YLR350W, incubated two hours with chemical substance | yeast gene YLR460C | yeast gene YPR023C, incubated two hours with chemical substance
1.0: yeast gene YBL048W | yeast gene YGL199C, incubated two hours with chemical substance | yeast gene YIL023C, incubated two hours with chemical substance | yeast gene YKL086W, incubated two hours with chemical substance | yeast gene YMR067C, incubated two hours with chemical substance | yeast gene YMR095C, incubated two hours with chemical substance | yeast gene YNL234W, incubated two hours with chemical substance | yeast gene YNR068C, incubated two hours with chemical substance | yeast gene YOL047C, incubated two hours with chemical substance
1.9: yeast gene YNL156C, incubated two hours with chemical substance | yeast gene YPL206C, incubated two hours with chemical substance
2.8: yeast gene YDL072C, incubated two hours with chemical substance | yeast gene YMR090W | yeast gene YMR102C, incubated two hours with chemical substance | yeast gene YMR315W | yeast gene YNL144C | yeast gene YOR019W, incubated two hours with chemical substance
1.5: yeast gene YDR511W, incubated two hours with chemical substance | yeast gene YJL057C, incubated two hours with chemical substance | yeast gene YJL066C, incubated two hours with chemical substance | yeast gene YOR197W, incubated two hours with chemical substance
1.4: yeast gene YBL107C | yeast gene YLR387C, incubated two hours with chemical substance | yeast gene YOL117W, incubated two hours with chemical substance | yeast gene YPR151C, incubated two hours with chemical substance
3.2: yeast gene YOL083W, incubated two hours with chemical substance
1.8: yeast gene YKL151C, incubated two hours with chemical substance | yeast gene YLR152C, incubated two hours with chemical substance | yeast gene YMR097C, incubated two hours with chemical substance | yeast gene YOL032W, incubated two hours with chemical substance
2.1: yeast gene YER035W, incubated two hours with chemical substance | yeast gene YGR110W | yeast gene YJL161W, incubated two hours with chemical substance | yeast gene YMR191W, incubated two hours with chemical substance
1.3: yeast gene YDL222C, incubated two hours with chemical substance | yeast gene YDR330W, incubated two hours with chemical substance | yeast gene YDR411C, incubated two hours with chemical substance | yeast gene YEL001C, incubated two hours with chemical substance | yeast gene YGR221C, incubated two hours with chemical substance | yeast gene YKL153W, incubated two hours with chemical substance | yeast gene YKR091W, incubated two hours with chemical substance | yeast gene YML117W, incubated two hours with chemical substance | yeast gene YNL074C, incubated two hours with chemical substance
0.3: yeast gene YJL082W, incubated two hours with chemical substance
2.4: yeast gene YDR391C, incubated two hours with chemical substance | yeast gene YJL151C, incubated two hours with chemical substance
1.7: yeast gene YJL152W, incubated two hours with chemical substance | yeast gene YMR180C, incubated two hours with chemical substance
2.3: yeast gene YPL196W, incubated two hours with chemical substance
0.8: yeast gene YER106W, incubated two hours with chemical substance | yeast gene YFL006W, incubated two hours with chemical substance | yeast gene YFL024C | yeast gene YFL032W, incubated two hours with chemical substance
3.0: yeast gene YLR149C, incubated two hours with chemical substance
2.9: yeast gene YJL171C, incubated two hours with chemical substance
